# From patent US6797694B2, “Chemical compounds having ion channel blocking activity for the treatment of immune dysfunction” (priority 1999, dated 2004)
# Test system: T cells
# Assay: Inhibition of antigen (PPD) induced T cell proliferation, [3H]thymidine incorporation
# Type: cell-based
# Details: solvent control 26.1
# Description: The chemical compounds used according to the invention prevent immunological proliferation by selective inhibition of the Ca^2+-activated K-channels in T- and B-lymphocytes. This effect may be verified using various proliferation assays. In this experiment the proliferative assay described by Ødum et al. [Ødum N, Kanner S B, Ledbetter J A, & Svejgaard A; J. Immunol. 1993 150 (12) 5289-5298] was used.
# Assays were performed in culture medium (RPMI 1640; available from Gibco, Grand Island, N.Y.) supplemented with 10% pooled human serum, 2 mM L-glutamine, 100 μg/ml penicillin, and 100 μg/ml streptomycin (available from Novo Nordisk, Copenhagen, Denmark) in 96-well round bottom tissue culture plates (available from Nunc, Roskilde, Denmark) with a final volume of 200 μl.
# T cells were pre-incubated for three hours with the test compounds before addition of antigen (PPD; Purified protein derivative, available from Statens Serum Institut, Denmark; 100 μg/ml). T cells were cultured at 5×10^4 cells/well for 144 hours. Twelve hours before harvest, [^3H]thymidine ([…]) was added. The cells were harvested onto glass fibre filters, and the [^3H]thymidine incorporation was measured in a scintillation counter. The results were expressed as mean counts per minute (cpm) from triplicate cultures.
Compound,T Cell Proliferation (test compound 10 μM) [cpm × 10^−3],T Cell Proliferation (test compound 25 μM) [cpm × 10^−3]
"OC(c1ccccc1)(c1ccccc1)c1ccc(Cl)cc1 [A, (4-chlorophenyl-diphenyl)-carbinol]",19.8,18.1
"CC(=O)C(c1ccccc1)(c1ccccc1)c1ccccc1 [C, 1,1,1-triphenylacetone]",18,19
